# Laboratory results reported in PMC4914250, “Cancer therapeutic approach based on conformational stabilization of mutant p53 protein by small peptides” (Oncotarget, 2016).
# System: mutp53^R175H
# Assay: ELISA of mutp53 conformation (PAb1620/PAb240), H1299-p53^R175H cell extract
# Assay type: biochemical, human
# Conditions: score 0-6 compared to positive control; mutp53 conformation
# Description: (§1) A total of close to 350 peptides, deduced from the phage sequences, were synthesized and subjected to several alternative complementary methods of semi high-throughput functional screening; we refer to these peptides as pCAPs (p53 conformation activating peptides). First, we used cell-free ELISA assays to evaluate the effect of individual peptides on mutp53 conformation and DNA binding in vitro. For conformation analysis (Figure 2A), microtiter plates were coated with PAb240, PAb1620 or PAb421 as control, then the effect of each peptide on reactivity of mutp53 with these antibodies was examined; WTp53 served as a positive control for PAb1620 reactivity.
# (§2) Cell extracts were added to ELISA plates coated with the indicated antibodies to allow mutp53 to react with the peptides and antibodies. αp53-HRP Ab was used for assessment of p53 levels. Numbers represent ratio of absorbance between the PAb1620 and PAb240 samples. All reads were normalized to the control […] reading of each extract. MCF7 (WTp53) and H1299-mutp53^A135V (tsp53) cells were used as positive controls for the WTp53 conformation (1620/240 ratio equals or exceeds 5:1). […] 96 well plates were coated with anti-p53 antibody, cell extracts containing p53 were reacted with oligonucleotides that contain a p53RE consensus binding site, labeled with biotin, in the presence or absence (NT) of test peptides. Streptavidin-HRP is used to quantify the amount of oligos in the well. TMB assay was performed to determine bound mutp53 levels (450nm). MCF7 and the H1299-mutp53^A135V(TS) cells serve as positive controls for WTp53. C.and D. - Bar graphs illustrating the effect of various selected peptides on mut-p53 dependent expression on cell viability. […] D, ES2 cells expressing endogenous mutp53 (blue bars) and ES2 cells knocked out for p53 by CRISPR construct (light blue bars). Cell lines were treated with selected peptides, Cis-platinum was used as positive control for cell death. 48 hours after treatment, cells were washed with PBS, and the remaining attached cells were stained with Crystal violet and washed 4 times with PBS. Stained cells were dissolved in 10% acetic acid and plates were taken for optical density measurement at […]. TEXT PRINTED IN THE PICTURE: (A) pCAP1: 0.87 | (A) pCAP2: 0.53 | (A) pCAP3: 0.59 | (A) pCAP4: 0.59 | (A) pCAP5: 0.60 | (A) pCAP6: 0.75 | (A) pCAP23: 1.06 | (A) pCAP24: 1.44 | (A) pCAP36: 1.25 | (A) pCAP47: 1.54 | (A) pCAP54: 1.54 | (A) pCAP60: 2.73 | (A) pCAP68: 2.22 | (A) pCAP83: 1.56 | (A) pCAP97: 2.45 DOUBTS OF THE COPYIST ABOUT THIS PICTURE: Panel A: the numbers over the bars are printed very small, rotated and blurred, so 3, 5, 6, 8 and 9 cannot be told apart with certainty. All values are best readings: pCAP1 0.87, pCAP2 0.53, pCAP3 0.59, pCAP4 0.59, pCAP5 0.60, pCAP6 0.75, pCAP23 1.06, pCAP24 1.44, pCAP36 1.25, pCAP47 1.54, pCAP54 1.54, pCAP60 2.73, pCAP68 2.22, pCAP83 1.56, pCAP97 2.45 / Panel A: the picture prints no measure with the numbers over the bars, so they are given as bare numbers / Panel A: numbers are also printed over the controls, which are not substances and are left out of lines. Best readings: NT 0.60, 60° 30'' 0.48, 60° 1' 0.37, 60° 3' 0.13, 60° 10' 0.05, MCF7 3.32, H1299TS 3.25
# Extracts were prepared at a concentration of 750ng/μl and then reacted for 2 hours with different peptides. Plates coated with the different antibodies were then washed and blocked, and extracts pre-incubated either with or without peptides were added for two additional hours. After removal of extracts, plates were washed and incubated with HRP-conjugated anti-p53 antibody. Finally, HRP activity was quantified by optical density at 450nm. MCF7 cells (expressing WTp53) and H1299-tsp53^A135V cells, stably expressing a temperature sensitive p53 mutant that has mutant conformation at 37°C but WT conformation at 32°C [31], were used as positive controls for the WTp53 conformation (1620/240 ratio 5:1). […]
row,Substance,Conform H1299
1,LPNPPERHH [pCAP-16],2

# System: mutp53 in SK3 cell extract
# Assay: ELISA of mutp53 conformation, SK3
# Assay type: biochemical, human
# Conditions: score 0-6 compared to positive control
# Description: as §1
# (§3) 96-well plates were coated using 3 different anti p53 monoclonal antibodies, PAb421, PAb240 and PAb1620. Wells were incubated overnight (ON) with 100μl Ab (5μg/ml) in room temp (RT). The liquid was discarded, and the wells were washed 3 times with PBS, 200 μl. Next, blocking with 5% BSA in PBS for 2 hours (RT) was performed, followed by 3 washes in PBS. Samples of mutant and WT p53 proteins (100 μl, 10 μg/ml), together with control peptides or with test peptides 1-326 (5μg /ml), were incubated for 1.5 hours, and then added to the wells for1 hour at RT. 4 washes with PBST were performed. Next, HRP conjugated αp53 antibody (10μg/ml HAF1355 (R&D)) were added to the wells and incubated at RT for 1 hour. Plates were washed 3 times in PBST and TMB substrate solution (50μl each well, Thermo, (Cat. No. ES001-1L-K)) was added and incubated at 37°C for 20 min. The reaction was stopped with 2M Sulfuric acid (50μl). The absorbance was measured at 450 nm with a spectrophotometer. Protein concentration was determined by dividing the absorb an each sample to by the absorbance of PAb421 samples.
row,Substance,Conform SK3
1,"DEDAKFRIRILMRR [pCAP-202, peptide with similarity to APAF1]",2
2,FPGHTIH [pCAP-100],3

# System: mutp53 in BT549 cell extract
# Assay: ELISA of mutp53 conformation, BT549
# Assay type: biochemical, human
# Conditions: score 0-6 compared to positive control
# Description: as §1, §3
row,Substance,Conform BT549
1,"DEDAKFRIRILMRR [pCAP-202, peptide with similarity to APAF1]",3
2,FPGHTIH [pCAP-100],1
3,"myr-HSSHHHPTVQHRR [pCAP-257, myristoylated peptide, similarity to SIN3A]",3

# System: mutp53^R175H
# Assay: ELISA of mutp53 DNA binding (p53RE oligonucleotide), H1299-p53^R175H cell extract
# Assay type: biochemical, human
# Conditions: score 0-6 compared to positive control; mutp53 DNA binding
# Protocol: as §2
# (§4) Next, we assessed the ability of our selected peptides to restore sequence-specific DNA binding to mutp53. To that end we employed an ELISA kit (R&D) in which cell extracts containing p53 are reacted with a biotinylated p53RE oligonucleotide and then incubated in wells coated with anti-p53 antibody, which is expected to trap the p53 protein and its associated p53RE DNA. The amount of p53RE retained in each well via p53 binding is quantified by incubation with streptavidin-HRP. […] Again, extracts of MCF7 and H1299-tsp53^A135V cells served as positive controls for WTp53 DNA binding activity. […] Importantly, there was substantial overlap between the peptides that stabilized the WT conformation (Figure 2A) and those that increased specific DNA binding (Figure 2B), further reinforcing the conclusion that those peptides stabilize mutp53 in a functional state. This was not seen with the randomly selected peptides 1-6 (black bars).
# For these experiments, a commercial p53/DNA binding kit of “R&D” (Cat-DYC1355-5 Lot-1273366FA) was used, in accordance with manufacturer guide lines. Briefly, 96 well plates we coated with anti-p53 antibody overnight. Cell extracts containing p53 are reacted with an oligonucleotide that contains a p53 consensus binding site (provided in the kit), labeled with Biotin, in the presence or absence (NT) of test peptides. […]
row,Substance,DNA H1299
1,LPNPPERHH [pCAP-16],3
2,FPGHTIH [pCAP-100],3
3,"SPLQTPAAPGAAAGPALSPV [pCAP-7, synthesized peptide of the functional screen]",1
4,"myr-HSSHHHPTVQHRR [pCAP-257, myristoylated peptide, similarity to SIN3A]",3

# System: mutp53 in SK3 cell extract
# Assay: ELISA of mutp53 DNA binding (p53RE oligonucleotide), SK3
# Assay type: biochemical, human
# Conditions: score 0-6 compared to positive control
# Protocol: as §4
# For these experiments, a commercial p53/DNA binding kit of “R&D” (Cat-DYC1355-5 Lot-1273366FA) was used, in accordance with manufacturer guide lines. Briefly, 96 well plates we coated with anti-p53 antibody overnight. Cell extracts containing p53 are reacted with an oligonucleotide that contains a p53 consensus binding site (provided in the kit), labeled with Biotin, in the presence or absence (NT) of test peptides. WT p53 is expected to bind this DNA binding site as well as to the antibody coating the test wells of the plate. Excess p53 and oligos were washed away and streptavidin-HRP was used to quantify the amount of oligos in the well, which is proportional to the DNA bound by p53. TMB assay was performed to determine HRP (ES001-1L-K) levels (450nm).
row,Substance,DNA SK3
1,LPNPPERHH [pCAP-16],3
2,FPGHTIH [pCAP-100],3

# System: H1299 cells expressing mutp53^R175H
# Assay: Crystal violet viability assay, H1299
# Assay type: cell-based
# Conditions: score 0-6 compared to positive control, 48 h
# Protocol: Cell extracts were added to ELISA plates coated with the indicated antibodies to allow mutp53 to react with the peptides and antibodies. αp53-HRP Ab was used for assessment of p53 levels. Numbers represent ratio of absorbance between the PAb1620 and PAb240 samples. All reads were normalized to the control PAb241 reading of each extract. MCF7 (WTp53) and H1299-mutp53^A135V (tsp53) cells were used as positive controls for the WTp53 conformation (1620/240 ratio equals or exceeds 5:1). […] 96 well plates were coated with anti-p53 antibody, cell extracts containing p53 were reacted with oligonucleotides that contain a p53RE consensus binding site, labeled with biotin, in the presence or absence (NT) of test peptides. Streptavidin-HRP is used to quantify the amount of oligos in the well. TMB assay was performed to determine bound mutp53 levels (450nm). MCF7 and the H1299-mutp53^A135V(TS) cells serve as positive controls for WTp53. C.and D. - Bar graphs illustrating the effect of various selected peptides on mut-p53 dependent expression on cell viability. […] D, ES2 cells expressing endogenous mutp53 (blue bars) and ES2 cells knocked out for p53 by CRISPR construct (light blue bars). Cell lines were treated with selected peptides, Cis-platinum was used as positive control for cell death. 48 hours after treatment, cells were washed with PBS, and the remaining attached cells were stained with Crystal violet and washed 4 times with PBS. Stained cells were dissolved in 10% acetic acid and plates were taken for optical density measurement at 595nM.
# This simple assay measures the total number of cells, thus reflecting the combination of both cell death and growth arrest effects. […] After 48 hours of treatment cells were stained with crystal violet and OD at 595nm was determined.
# Values on the Y-axis reflect the number of cells in the treated wells, normalized to the non-treated samples (NT; red bars).
row,Substance,Viability H1299
1,"FWTQSIKERKMLNEHDFER [pCAP-3, randomly selected peptide used as inert comparison]",1
2,LPNPPERHH [pCAP-16],3
3,"DEDAKFRIRILMRR [pCAP-202, peptide with similarity to APAF1]",3
4,FPGHTIH [pCAP-100],3

# System: HOP62
# Assay: Crystal violet viability assay, HOP62
# Assay type: cell-based, human
# Conditions: score 0-6 compared to positive control, 48 h
# Description: (§5) We also performed a similar analysis on ES2 ovarian cancer cells, which express endogenous mp53^S241F, compared to ES2 cells in which p53 was stably knocked out using CRISPR/Cas9 (ES2 p53KO Figure S1F), to control for specificity for mutp53 (Figure 2D). In ES2 cells, too, some of the peptides caused a significant reduction in cell numbers, more prominent in the mutp53 expressing cells than in their p53KO counterparts. […] Overall, we performed this analysis on several different mutp53-expressing human cancer cell lines, and the results are summarized in Table S3. Based on this comprehensive picture, we reduced the number of most promising candidate lead peptides to 30. These peptides were then synthesized with an 8 arginine C-terminal tail for enhanced delivery across cell membranes (pCAPs 130-160); for clarity, peptides are referred to by their original number, with an R for poly arginine (see Table S3).
# (§6) Cells were cultured in 96 wells plates with 2500-4000 cells/well. Serial dilutions of different peptides were added and the plates incubated for additional 48 h at 37°C. Then medium was removed and cell viability was determined by staining the cells with crystal violet (0.05%) in methanol/PBS (1:5, v/v), for 10 min, followed by 3 washes with PBS. 10% acetic acid was added to each well for 10 min. OD was determined at 595 nm.
row,Substance,Viability HOP62
1,"FWTQSIKERKMLNEHDFER [pCAP-3, randomly selected peptide used as inert comparison]",2
2,LPNPPERHH [pCAP-16],3
3,"DEDAKFRIRILMRR [pCAP-202, peptide with similarity to APAF1]",2
4,"LGIDEDEETETAPE [pCAP-6, randomly selected peptide used as inert comparison]",2
5,"myr-HSSHHHPTVQHRR [pCAP-257, myristoylated peptide, similarity to SIN3A]",3

# System: ES2 ovarian cancer cells
# Assay: Crystal violet viability assay, ES2
# Assay type: cell-based, human
# Conditions: score 0-6 compared to positive control, 48 h
# Protocol: as §2, §5, §6
row,Substance,Viability ES2
1,"EHDFEVRGDVVNGRNHQPK [pCAP-4, randomly selected peptide used as inert comparison]",2

# System: SK3
# Assay: Crystal violet viability assay, SK3
# Assay type: cell-based, human
# Conditions: score 0-6 compared to positive control, 48 h
# Description: as §5, §6
row,Substance,Viability SK3
1,"DEDAKFRIRILMRR [pCAP-202, peptide with similarity to APAF1]",3
2,"myr-HSSHHHPTVQHRR [pCAP-257, myristoylated peptide, similarity to SIN3A]",3

# System: WI38
# Assay: Crystal violet viability assay, WI38
# Assay type: cell-based
# Conditions: score 0-6 compared to positive control, 48 h
# Protocol: as §6
row,Substance,Viability WI38
1,"SPLQTPAAPGAAAGPALSPV [pCAP-7, synthesized peptide of the functional screen]",2

# System: EP156
# Assay: Crystal violet viability assay, EP156
# Assay type: cell-based
# Conditions: score 0-6 compared to positive control, 48 h
# Description: as §5, §6
row,Substance,Viability EP156
1,LPNPPERHH [pCAP-16],4
2,"myr-HSSHHHPTVQHRR [pCAP-257, myristoylated peptide, similarity to SIN3A]",4

# System: mutp53
# Assay: Summary score of peptide functional screens
# Conditions: overall score over conformation, DNA binding, viability and PCR screens
row,Substance,SCORE
1,"FWTQSIKERKMLNEHDFER [pCAP-3, randomly selected peptide used as inert comparison]",4
2,LPNPPERHH [pCAP-16],22
3,"DEDAKFRIRILMRR [pCAP-202, peptide with similarity to APAF1]",13
4,FPGHTIH [pCAP-100],19
5,"LGIDEDEETETAPE [pCAP-6, randomly selected peptide used as inert comparison]",4
6,"SPLQTPAAPGAAAGPALSPV [pCAP-7, synthesized peptide of the functional screen]",3
7,"EHDFEVRGDVVNGRNHQPK [pCAP-4, randomly selected peptide used as inert comparison]",2
8,"myr-HSSHHHPTVQHRR [pCAP-257, myristoylated peptide, similarity to SIN3A]",16
9,"LEVIYMI [pCAP-5, randomly selected peptide used as inert comparison]",2
10,"VWVHDSCHANLQNYRNYLP [pCAP-2, randomly selected peptide used as inert comparison]",2
